Test results published in PMC12051620, “Molecular basis underlying the specificity of an antagonist AA92593 for mammalian melanopsins” (The Journal of Biological Chemistry, 2025).
pIC50: −log10 of the molar value.

How the values were obtained:
Xenopus Opn4x WT = biological target: T1, Xenopus Opn4x WT (Xenopus laevis, UniProt O57422); test: GsX GloSensor assay with Gsα/q11; format: cell-based; details: 16.7 μM AA92593, COS-1 cells
T1 construct: expressed in transfected cells; host or cells: COS-1
T1 sequence (O57422 1-334 limits assumed): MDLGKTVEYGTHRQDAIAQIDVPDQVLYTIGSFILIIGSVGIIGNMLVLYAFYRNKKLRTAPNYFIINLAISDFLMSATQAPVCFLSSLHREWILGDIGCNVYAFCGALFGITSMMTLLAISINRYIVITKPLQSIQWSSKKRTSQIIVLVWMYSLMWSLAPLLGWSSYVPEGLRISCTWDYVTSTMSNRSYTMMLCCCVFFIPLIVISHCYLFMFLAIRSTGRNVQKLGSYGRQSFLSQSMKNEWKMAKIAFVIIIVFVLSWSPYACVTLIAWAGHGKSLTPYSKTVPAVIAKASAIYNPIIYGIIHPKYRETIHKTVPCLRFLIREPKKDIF
From the text: (§1) The GsX GloSensor assay using Gsα/q11 of Xenopus Opn4x and chicken Opn4-1 detected the light-dependent Gq activation in both non-mammalian-type melanopsins (Fig. 6, A and D). […] The ineffectiveness of AA92593 is consistent with the fact that Phe-94^2.61, Ser-188^ECL2, and Ser-269^6.52 are not conserved among non-mammalian-type melanopsins (Figs. 2A, S2 and S3). If these three residues are important for the antagonistic effect against melanopsins, the introduction of Phe-94^2.61/Ser-188^ECL2/Ser-269^6.52 into the non-mammalian-type melanopsins would make them susceptible to AA92593. As expected, the substitutions of C94^2.61F/T188S^ECL2/A269^6.52S in Xenopus Opn4x and chicken Opn4-1 increased their sensitivity to AA92593 by ∼49% and ∼22%, respectively (Fig. 6, B and E, G–I). Based on the loss-of-function properties of F94^2.61C/S188^ECL2T/S269^6.52A mutants of mammalian-type melanopsins and the gain-of-function properties of C94^2.61F/T188^ECL2S/A269^6.52S mutants of non-mammalian-type melanopsins (Figs. 2G, 3E, 6, G and H), we propose that Phe-94^2.61, Ser-188^ECL2, and Ser-269^6.52 are required for specific interactions with AA92593 as an effective antagonist. […]

chicken Opn4-1 WT = test: GsX GloSensor assay with Gsα/q11; format: cell-based; details: 16.7 μM AA92593, COS-1 cells
From the text: as §1

human melanopsin = biological target: T2, human melanopsin (Homo sapiens, UniProt Q9UHM6); design: the C-terminal amino acid residues (94, 140, 200, 214, 296, and 308 residues); expressed in transfected cells; method as in PMID 23974117; details: CHO cells; calcium imaging; 9-cis-retinal incubation several minutes; read-out: IC50 reported in the previous study; cited from earlier work
T2 sequence (Q9UHM6 1-384 limits assumed): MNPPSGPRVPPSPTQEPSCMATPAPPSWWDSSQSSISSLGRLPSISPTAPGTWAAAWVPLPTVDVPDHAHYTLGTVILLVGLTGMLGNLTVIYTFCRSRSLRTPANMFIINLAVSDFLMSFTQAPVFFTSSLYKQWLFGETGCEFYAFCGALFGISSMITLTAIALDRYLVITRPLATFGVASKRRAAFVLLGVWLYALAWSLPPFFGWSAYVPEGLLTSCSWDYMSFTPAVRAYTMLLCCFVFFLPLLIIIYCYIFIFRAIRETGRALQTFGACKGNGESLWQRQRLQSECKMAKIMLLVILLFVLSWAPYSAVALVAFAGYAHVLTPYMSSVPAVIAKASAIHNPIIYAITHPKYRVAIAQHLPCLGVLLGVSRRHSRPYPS

For `COc1ccc(S(=O)(=O)N2CCCCC2)cc1C` [AA92593], the “inhibition of the light-dependent responses” value (Xenopus Opn4x WT) is given as “did not effectively inhibit”, the “inhibition of the light-dependent responses” value (chicken Opn4-1 WT) is given as “did not effectively inhibit” and the pIC50 (human melanopsin) is given as 6.18.
